Consider 18 molecules from ChEMBL document CHEMBL4665716, “Identification of a novel series of azabenzimidazole-derived inhibitors of spleen tyrosine kinase” (Bioorg Med Chem Lett, 2020).

In data set [1] the target is Tyrosine-protein kinase SYK (Homo sapiens, UniProt P43405). The experiment in a line: Inhibition of SYK (unknown origin).
In data set [2] the test system is SUD4. The experiment in a line: Growth inhibition of human SU-DHL-4 cells. The data set is classed as functional.
The target in data set [3] is Voltage-gated inwardly rectifying potassium channel KCNH2 (Homo sapiens, UniProt Q12809). Put plainly: Inhibition of human ERG.
Voltage-gated inwardly rectifying potassium channel KCNH2, sequence (Q12809 whole entry): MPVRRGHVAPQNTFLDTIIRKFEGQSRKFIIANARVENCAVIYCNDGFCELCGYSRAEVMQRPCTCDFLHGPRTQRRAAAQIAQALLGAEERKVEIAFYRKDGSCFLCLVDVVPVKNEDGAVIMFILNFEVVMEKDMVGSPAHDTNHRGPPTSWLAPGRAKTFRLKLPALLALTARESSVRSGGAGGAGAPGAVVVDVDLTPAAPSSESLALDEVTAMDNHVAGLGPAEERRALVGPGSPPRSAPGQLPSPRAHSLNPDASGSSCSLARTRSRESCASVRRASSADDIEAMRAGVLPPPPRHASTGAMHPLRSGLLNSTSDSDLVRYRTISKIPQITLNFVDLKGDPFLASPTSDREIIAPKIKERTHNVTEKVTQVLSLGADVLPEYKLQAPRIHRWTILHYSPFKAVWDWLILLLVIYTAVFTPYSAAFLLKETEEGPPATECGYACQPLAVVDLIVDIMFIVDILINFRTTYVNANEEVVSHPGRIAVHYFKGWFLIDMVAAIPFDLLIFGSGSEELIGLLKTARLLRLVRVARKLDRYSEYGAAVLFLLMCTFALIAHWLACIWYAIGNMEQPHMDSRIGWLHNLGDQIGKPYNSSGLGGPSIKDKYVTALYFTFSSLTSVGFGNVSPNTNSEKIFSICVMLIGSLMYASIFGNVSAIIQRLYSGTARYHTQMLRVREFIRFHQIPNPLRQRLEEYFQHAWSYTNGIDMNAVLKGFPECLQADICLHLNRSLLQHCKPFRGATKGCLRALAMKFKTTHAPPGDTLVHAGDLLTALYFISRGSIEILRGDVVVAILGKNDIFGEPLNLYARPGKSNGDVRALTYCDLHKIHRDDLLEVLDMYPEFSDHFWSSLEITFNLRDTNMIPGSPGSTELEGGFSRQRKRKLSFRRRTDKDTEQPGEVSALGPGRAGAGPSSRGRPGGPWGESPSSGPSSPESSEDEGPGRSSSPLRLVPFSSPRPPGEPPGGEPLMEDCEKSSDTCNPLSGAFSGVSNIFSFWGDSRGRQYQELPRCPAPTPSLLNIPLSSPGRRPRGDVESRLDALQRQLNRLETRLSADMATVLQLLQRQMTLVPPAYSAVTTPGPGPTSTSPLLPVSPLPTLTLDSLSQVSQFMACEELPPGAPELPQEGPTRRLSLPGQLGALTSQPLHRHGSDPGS
Data set [4] can be described thus: Solubility of compound. It counts as physicochemical.
Data set [5] can be described thus: Intrinsic clearance in human liver microsome. The data set is classed as ADME. The settings on record: microsomes.
Data set [6] can be described thus: Intrinsic clearance in rat hepatocytes assessed per 10^6 cells. The data set is classed as ADME, cell-based, Hepatocyte. The conditions noted are these: read-out: CLH.
Data set [7] in a line: Lipophilicity, logD of compound. The settings on record: octanol/water. The data set is classed as physicochemical.
Data set [8] can be described thus: Apparent permeability in human Caco-2 cells. It counts as ADME, cell-based.

Each structure is given as a SMILES string. In brackets after ≈: the same amount, converted by molar mass.

Usually IC50 stands for the concentration that inhibits the measured activity by half. A higher IC50 goes with a need for much substance. In turn, `COc1ccc(-c2nc3c(NCC4CCNCC4)c(Cl)cnc3[nH]2)cc1` yielded an IC50 in data set [1] of 5 nM.

As a reminder, the GI50 is the concentration giving 50% growth inhibition. Low values mean more potent growth inhibition, high ones less potent growth inhibition. In the case of `Cn1ccc2c(-c3nc4c(-n5cc(N[C@@H]6CCOC[C@@H]6N)cn5)ccnc4[nH]3)cccc21`, in data set [2], the GI50 was 210 nM.

As to `CN(C)Cc1cnn(-c2ccnc3[nH]c(-c4cn(C)c5ccc(C(=O)N(C)C)cc45)nc23)c1`, the IC50 in data set [3] is more than 40000 nM; in data set [1] it was 1.2 nM. The GI50 in data set [2] was found to be 1700 nM.

Regarding `Cn1ccc2c(-c3nc4c(-n5cc(CN6CC[C@H](O)C6)cn5)ccnc4[nH]3)cccc21`, the IC50 in data set [3] was more than 40000 nM; in data set [1], 1 nM. The molecule further had a GI50 in data set [2] of 1800 nM.

`CN(C)Cc1cc(-c2ccnc3[nH]c(-c4cccc5c4ccn5C)nc23)nn1C`: the results for the IC50 in data set [3] and in data set [1] were 13000 nM and 2.8 nM, respectively. Further, in data set [2], the GI50 was found to be 1000 nM.

For `CNC(=O)c1cc2c(-c3nc4c(-n5cc(CN(C)C)cn5)ccnc4[nH]3)cn(C)c2cn1`, the IC50 in data set [3] was more than 40000 nM; in data set [1], 0.18 nM. The molecule further had a GI50 in data set [2] of 870 nM.

`CNC(=O)c1ccc2c(c1)c(-c1nc3c(-n4cc(CN(C)C)cn4)ccnc3[nH]1)cn2C`: in data set [2], the GI50 turned out to be 210 nM. In addition, the IC50 in data set [1] was 0.15 nM.

Molecule `Clc1cnc2[nH]c(-c3ccccc3)nc2c1OCC1CCNCC1` registered an IC50 in data set [1] of 30 nM.

In turn, `Cc1nnc(-c2ncn3ccc(Nc4nccc(-c5cc(CN(C)C)n(C)n5)n4)cc23)o1` displayed an IC50 in data set [1] of 0.21 nM.

With `Cc1nn(-c2ccnc3[nH]c(-c4cccc5c4ccn5C)nc23)cc1CN1CC[C@H](O)C1`, the IC50 in data set [3] was 27000 nM; in data set [1] it was 4.6 nM. In data set [2], this molecule had a GI50 of 1200 nM.

Take `Cc1nnc(-c2ccc3c(c2)c(-c2nc4c(-n5cc(CN(C)C)c(C)n5)ccnc4[nH]2)cn3C)o1`: in data set [2], the GI50 stood at 290 nM. The molecule further yielded an IC50 in data set [1] of 0.098 nM.

In turn, `CN(C)Cc1cnn(-c2ccnc3[nH]c(-c4cn(C)c5ccc(S(C)(=O)=O)cc45)nc23)c1` showed a GI50 in data set [2] of 440 nM. In data set [1], the IC50 is 0.077 nM.

`CC(=O)Nc1ccc2c(c1)c(-c1nc3c(-n4cc(CN(C)C)c(C)n4)ccnc3[nH]1)cn2C` yielded a GI50 in data set [2] of 200 nM. In data set [1], this molecule returned an IC50 of 0.17 nM.

With `Cn1ccc2c(-c3nc4c(-n5cc(CN6CC[C@@H](O)C6)cn5)ccnc4[nH]3)cccc21`, the values for the IC50 in data set [3] and in data set [1] were more than 33000 nM and 0.48 nM, respectively. This molecule also showed a GI50 in data set [2] of 1200 nM.

For `CN(c1cnn(-c2ccnc3[nH]c(-c4cccc5c4ccn5C)nc23)c1)[C@@H]1CCOC[C@@H]1N`, the IC50 in data set [3] amounted to 9200 nM; in data set [1], 5.5 nM. For the same molecule, the GI50 in data set [2] was 1100 nM.

In the case of `Cn1ccc2c(-c3nc4c(OCC5CCNCC5)c(Cl)cnc4[nH]3)cccc21`, the IC50 in data set [1] worked out at 3.51 nM.

For orientation: solubility means how much of the substance goes into solution per volume. For orientation: logD means the decadic logarithm of the distribution of all forms, ionised or not, between an organic phase and buffer at a given pH. Low readings indicate lower lipophilicity, high ones higher lipophilicity. What is called Papp is a coefficient for how fast a substance crosses the barrier. As to `Cc1nn(-c2ccnc3[nH]c(-c4cccc5c4ccn5C)nc23)cc1CN1CC[C@@H](O)C1`, the IC50 in data set [3] was determined as 31000 nM; in data set [1], 0.91 nM. Besides, in data set [2], the GI50 worked out at 1100 nM. The molecule further had a solubility in data set [4] of less than 20 µM. In addition, the CLint in data set [5] was 63 µL/min/mg. Moreover, the hepatocyte CLint in data set [6] amounted to 40 µL/min/1e6 cells. Besides, the logD in data set [7] turned out to be 2.9. For the same molecule, the Papp in data set [8] is 0.63 ×10⁻⁶ cm/s.

On to `Cc1nn(-c2ccnc3[nH]c(-c4cccc5c4ccn5C)nc23)cc1CN(C)C`, for which the figures for the IC50 in data set [3] and in data set [1] were 2600 nM and 0.83 nM, respectively. In data set [2], this molecule displayed a GI50 of 770 nM. This molecule had a solubility in data set [4] of 89 µM (≈ 34.3 µg/mL). Also, in data set [5], the CLint was determined as 37 µL/min/mg. The hepatocyte CLint in data set [6] was determined as 127 µL/min/1e6 cells. Moreover, in data set [7], the logD was 2.8.
